# Source: US7781565B2 (priority 2006, dated 2010)
# Entries after “also recorded” stand apart in the source; their conditions may differ.
# Test system: NCI-60 cell lines
# Format: cell-based, human
substance,measurement,value
AATRAGS,Cell Line (NCI-60 cell line the peptide and its motif are associated with),UACC 257 Melanoma
AVGVSAA,Cell Line the peptide is associated with (peptide recovered from phage library selection on this NCI-60 cell line),MDA-MB-231 Breast
TEGTRGV,Cell Line the peptide is associated with (peptide recovered from phage library selection on this NCI-60 cell line),RXF393 Renal
MQLRGAV,Cell Line (NCI-60 cell line the peptide and its motif are associated with),OVCAR-4 Ovarian
LRVPGGP,Cell Line (NCI-60 cell line the peptide is associated with),KM-12C Colon
YGVSRLL,Cell Line (NCI-60 cell line the peptide and its motif are associated with),DU-145 Prostate
SLGSVGS,Cell Line with which the peptide (and its tripeptide motif) is associated,EKVX-Lung
EFAVAGR,Cell Line with which the peptide (and its tripeptide motif) is associated,SR Leukemia
GGRLRAV,Cell Line (NCI-60 cell line the peptide is associated with),SNB-19 CNS; also recorded: SF-539 CNS
RLRLSSW,Cell Line the peptide is associated with (peptide recovered from phage library selection on this NCI-60 cell line),TK-10 Renal
RGGQRAS,Cell Line (NCI-60 cell line the peptide and its motif are associated with),M14 Melanoma
VGAVYFL,Cell Line with which the peptide (and its tripeptide motif) is associated,H322-Lung
ELGLRVP,Cell Line (NCI-60 cell line the peptide and its motif are associated with),OVCAR-8 Ovarian
GVRYLRT,Cell Line (NCI-60 cell line the peptide is associated with),HCT-116 Colon
YGQYGGL,Cell Line (NCI-60 cell line the peptide is associated with),HCT-15 Colon
RGRLEVP,Cell Line with which the peptide (and its tripeptide motif) is associated,Molt-4-Leukemia
GEGGSGG,Cell Line (NCI-60 cell line the peptide and its motif are associated with),OVCAR-5 Ovarian
TRLSFRH,Cell Line (NCI-60 cell line the peptide and its motif are associated with),SK-OV-3-3 Ovarian
SRKGLRS,Cell Line (NCI-60 cell line the peptide and its motif are associated with),786-0 Renal
AGSAFWA,Cell Line (NCI-60 cell line the peptide and its motif are associated with),786-0 Renal
GVIGRGS,Cell Line (NCI-60 cell line the peptide and its motif are associated with),UACC62 Melanoma
RGAVAFE,Cell Line with which the peptide (and its tripeptide motif) is associated,SR Leukemia
LMGRASG,Cell Line with which the peptide (and its tripeptide motif) is associated,SR Leukemia
FGLRSRL,Cell Line with which the peptide (and its tripeptide motif) is associated,SR Leukemia
GYARGSG,Cell Line the peptide is associated with (peptide recovered from phage library selection on this NCI-60 cell line),RXF393 Renal
LRSMAVM,Cell Line the peptide is associated with (peptide recovered from phage library selection on this NCI-60 cell line),ACHN Renal
LGASLLV,Cell Line the peptide is associated with (peptide recovered from phage library selection on this NCI-60 cell line),RXF393 Renal
YLRSAGM,Cell Line (NCI-60 cell line the peptide and its motif are associated with),PC3 Prostate
SQFGPSF,Cell Line (NCI-60 cell line the peptide and its motif are associated with),SK-OV-3-3 Ovarian
GDSRRGV,Cell Line with which the peptide (and its tripeptide motif) is associated,Hop-62-Lung
QLLSQVY,Cell Line the peptide is associated with (peptide recovered from phage library selection on this NCI-60 cell line),MCF-7 Breast
GRLWWHT,Cell Line with which the peptide (and its tripeptide motif) is associated,Hop-92-Lung
VAWRGVS,Cell Line with which the peptide (and its tripeptide motif) is associated,A549-Lung
AGLALTV,Cell Line (NCI-60 cell line the peptide is associated with),MALME-3M Melanoma
NLADGSV,Cell Line with which the peptide (and its tripeptide motif) is associated,H322-Lung
RGRLALL,Cell Line (NCI-60 cell line the peptide and its motif are associated with),M14 Melanoma
AGWRLSQ,Cell Line the peptide is associated with (peptide recovered from phage library selection on this NCI-60 cell line),CAIK-1 Renal
AGSIALR,Cell Line with which the peptide (and its tripeptide motif) is associated,HL-60-Leukemia
LRVDQLY,Cell Line (NCI-60 cell line the peptide and its motif are associated with),UACC62 Melanoma
RLAVSGY,Cell Line with which the peptide (and its tripeptide motif) is associated,H522-Lung
GGVSRMR,Cell Line the peptide is associated with (peptide recovered from phage library selection on this NCI-60 cell line),CAIK-1 Renal
MRYELRS,Cell Line the peptide is associated with (peptide recovered from phage library selection on this NCI-60 cell line),SN12C Renal
RGVKLGD,Cell Line (NCI-60 cell line the peptide is associated with),SW620-Colon
FPARGED,Cell Line the peptide is associated with (peptide recovered from phage library selection on this NCI-60 cell line),A498 Renal
VRANGGS,Cell Line the peptide is associated with (peptide recovered from phage library selection on this NCI-60 cell line),MDA-MB-231 Breast
FGGSMAP,Cell Line (NCI-60 cell line the peptide and its motif are associated with),SK-MEL-2 Melanoma
VNLGGSW,Cell Line with which the peptide (and its tripeptide motif) is associated,H322-Lung
VGSVSVN,Cell Line with which the peptide (and its tripeptide motif) is associated,A549-Lung
SVVRRGS,Cell Line the peptide is associated with (peptide recovered from phage library selection on this NCI-60 cell line),ACHN Renal
ESATGVS,Cell Line the peptide is associated with (peptide recovered from phage library selection on this NCI-60 cell line),MDA-MB-231 Breast
SERSSLG,Cell Line with which the peptide (and its tripeptide motif) is associated,Hop-92-Lung
RVPTGVR,Cell Line the peptide is associated with (peptide recovered from phage library selection on this NCI-60 cell line),SN12C Renal
LGGLGLY,Cell Line (NCI-60 cell line the peptide and its motif are associated with),DU-145 Prostate
GGSALFG,Cell Line (NCI-60 cell line the peptide is associated with),HT-29 Colon
GVSGTVS,Cell Line (NCI-60 cell line the peptide and its motif are associated with),IGROV1 Ovarian
LRVGHAG,Cell Line the peptide is associated with (peptide recovered from phage library selection on this NCI-60 cell line),SN12C Renal
GWSASLG,Cell Line (NCI-60 cell line the peptide is associated with),HCT-116 Colon
AGGRWNL,Cell Line (NCI-60 cell line the peptide is associated with),HT-29 Colon
HRLRSMS,Cell Line (NCI-60 cell line the peptide and its motif are associated with),UACC62 Melanoma
SRVSFHE,Cell Line (NCI-60 cell line the peptide is associated with),MALME-3M Melanoma
FDPGGLR,Cell Line the peptide is associated with (peptide recovered from phage library selection on this NCI-60 cell line),SN12C Renal
LRGVYVA,Cell Line the peptide is associated with (peptide recovered from phage library selection on this NCI-60 cell line),NCI/ADR-RES Breast
THVGGVR,Cell Line (NCI-60 cell line the peptide and its motif are associated with),OVCAR-8 Ovarian
GSSLHLL,Cell Line with which the peptide (and its tripeptide motif) is associated,RPMI-8226-Leukemia
AVRGVAR,Cell Line with which the peptide (and its tripeptide motif) is associated,HL-60-Leukemia
AGRGAGG,Cell Line (NCI-60 cell line the peptide and its motif are associated with),OVCAR-4 Ovarian
LGGGGLL,Cell Line (NCI-60 cell line the peptide is associated with),KM-12C Colon
VIVRGSL,Cell Line the peptide is associated with (peptide recovered from phage library selection on this NCI-60 cell line),UO31 Renal
GGSRLLL,Cell Line with which the peptide (and its tripeptide motif) is associated,RPMI-8226-Leukemia
RIGRVWA,Cell Line with which the peptide (and its tripeptide motif) is associated,Molt-4-Leukemia
GRLLAGG,Cell Line with which the peptide (and its tripeptide motif) is associated,Hop-92-Lung
VGPSVHL,Cell Line (NCI-60 cell line the peptide and its motif are associated with),786-0 Renal
AVALGGS,Cell Line (NCI-60 cell line the peptide and its motif are associated with),UACC 257 Melanoma
TSGRLWV,Cell Line (NCI-60 cell line the peptide and its motif are associated with),M14 Melanoma
SRASGHG,Cell Line (NCI-60 cell line the peptide is associated with),HT-29 Colon
VWGVGGS,Cell Line with which the peptide (and its tripeptide motif) is associated,K-562-Leukemia
HTRAVSE,Cell Line (NCI-60 cell line the peptide and its motif are associated with),OVCAR-8 Ovarian
RVSRAGG,Cell Line (NCI-60 cell line the peptide and its motif are associated with),PC3 Prostate
PLRSVWS,Cell Line (NCI-60 cell line the peptide is associated with),SF-268 CNS
GSWARGY,Cell Line (NCI-60 cell line the peptide is associated with),HCT-15 Colon
VGLGHWP,Cell Line with which the peptide (and its tripeptide motif) is associated,Hop-62-Lung
SVGAVGG,Cell Line with which the peptide (and its tripeptide motif) is associated,A549-Lung
NNVGGSS,Cell Line (NCI-60 cell line the peptide and its motif are associated with),OVCAR-4 Ovarian
PAASRLL,Cell Line with which the peptide (and its tripeptide motif) is associated,RPMI-8226-Leukemia
